In assay [1] the test system is common house mosquito (Culex pipiens pallens). In words: whole plant or invertebrate. The conditions noted are these: 24 h.
Method: The test chemical solution (0.7 mL) was added to 100 mL of deionized water to thereby adjust the concentration of the active ingredient to 3.5 ppm. Twenty (20) heads of last instar larvae of common house mosquito (Culex pipiens pallens) were released in the solution. After 1 day, the number of the dead insects was counted.
Mortality was determined by the following equation. Mortality (%)=(number of dead insects/number of tested insects)×100
Assay [2] concerns diamondback moth (Plutella xylostella). The assay can be described thus: Test Example 20: diamondback moth larvae mortality on sprayed cabbage. The class given is in vivo. The conditions noted are these: 120 h. On the procedure: Cabbage (cultivar: GREEN BALL) was sowed and grown in a polyethylene cup until the third to fourth true leaf was developed. The test chemical solution was sprayed over the cabbage at a rate of 20 mL per cup. After drying the chemical solution, the cabbage cut from the base was disposed in a polyethylene cup (5.5 cm in diameter) with a filter paper laid on the bottom. Five (5) heads of third-instar larvae of diamondback moth (Plutella xylostella) were released and then a lid was put on the cup. After storage at 25° C. for 5 days, the number of the surviving insects was counted and mortality was calculated by the following equation.

Assay [3] deals with rice blast fungus (Magnaporthe grisea). The class given is in vivo. To be noted: 500 ppm water dilution sprayed on rice (NIHONBARE); contact with infected rice seedling for 6 days.
In assay [4] the test system is tomato late blight fungus (Phytophthora infestans). The class given is in vivo. To be noted: 500 ppm water dilution sprayed on tomato (PATIO) seedling; spores inoculated after air-drying.

Some results are limits rather than exact numbers.

On to `Cc1cccc(-n2nnn(C)c2=O)c1COc1ccc(-c2ccc(Cl)cc2)s1` [present compound 15, 1-{2-[5-(4-chlorophenyl)thiophen-2-yloxymethyl]-3-methylphenyl}-4-methyl-1,4-dihydrotetrazol-5-one], for which the mortality at 3.5 ppm in assay [1] stood at 95%.
For `Cc1cccc(-n2nnn(C)c2=O)c1COc1csc(-c2ccccc2)n1` [present compound 10], the mortality at 500 ppm in assay [2] is at least 80%.
With `Cc1cccc(-n2nnn(C)c2=O)c1COc1c(C)c(-c2ccccc2)nn1C` [present compound 8], the “lesion areas on the treated plant with respect to the lesion area on the non-treated plant” value in assay [3] is at most 30%. Besides, the “area of lesion spots on the treated plant relative to that on an untreated plant” value in assay [4] was at most 30%.
For the compound `Cc1cccc(-n2nnn(C)c2=O)c1COc1cc(-c2ccc(Cl)cc2)nn1C` [present compound 4], the mortality at 500 ppm in assay [2] was at least 80%.
In assay [1], `Cc1cccc(-n2nnn(C)c2=O)c1COc1nn(C)c(-c2ccc(Cl)cc2)c1C` [present compound 29, 1-(2-{[1,4-dimethyl-5-(4-chlorophenyl)-1H-pyrazol-3-yloxy]methyl}-3-methylphenyl)-4-methyl-1,4-dihydrotetrazol-5-one] came in with a mortality at 3.5 ppm of 95%.

For orientation: mortality means the share of the test organisms that died. Lower therefore signals a weak lethal effect.

Source of the values: US10085450B2, “Tetrazolinone compound and use thereof” (SUMITOMO CHEMICAL COMPANY, LIMITED, priority 2013, dated 2018).
